Data reported in US20260297081A1, “COMPOUNDS AND METHODS OF TREATING CANCERS” (Cullgen Inc., priority 2023, published 2026).

Test system: MCF7 cells
Experiment: Anti-proliferation (viability) of MCF7 cells (Table 7, FIG. 2B)
Format: cell-based
Conditions: Homo sapiens, MCF7, MCF7 cells, 3-6 days, 10-point serial dilution; read-out: GI IC50 in MCF-7

Row | IC50 [nM] | Structure (SMILES)
1 | > 100 | CC(=O)c1c(C)c2cnc(Nc3ccc(N4CCN(CCC(=O)N5CCC(Nc6nc(NC(C)C)ccc6C(=O)Nc6cn(C)c(C7CC7)n6)CC5)CC4)cn3)nc2n(C2CCCC2)c1=O [CPD-313, 2-((1-(3-(4-(6-((6-acetyl-8-cyclopentyl-5-methyl-7-oxo-7,8-dihydropyrido[2,3-d]pyrimidin-2-yl)amino)pyridin-3-yl)piperazin-1-yl)propanoyl)piperidin-4-yl)amino)-N-(2-cyclopropyl-1-methyl-1H-imidazol-4-yl)-6-(isopropylamino)nicotinamide]
2 | > 100 | CCCn1nc(NC(=O)c2ccc(NC)nc2NC2CC3(CC(NC(=O)CN4CCN(c5ccc(Nc6ncc7c(C)c(C(C)=O)c(=O)n(C8CCCC8)c7n6)nc5)CC4)C3)C2)cc1C (stereo not drawn) [CPD-314, 2-((6-(2-(4-(6-((6-acetyl-8-cyclopentyl-5-methyl-7-oxo-7,8-dihydropyrido[2,3-d]pyrimidin-2-yl)amino)pyridin-3-yl)piperazin-1-yl)acetamido)spiro[3.3]heptan-2-yl)amino)-N-(5-methyl-1-propyl-1H-pyrazol-3-yl)-6-(methylamino)nicotinamide]
3 | > 100 | CNc1ccc(C(=O)Nc2cc(C)n(C3CC3)n2)c(NC2CC3(CC(NC(=O)CN4CCN(c5ccc(Nc6ncc7c(C)c(C(C)=O)c(=O)n(C8CCCC8)c7n6)nc5)CC4)C3)C2)n1 (stereo not drawn) [CPD-315, 2-((6-(2-(4-(6-((6-acetyl-8-cyclopentyl-5-methyl-7-oxo-7,8-dihydropyrido[2,3-d]pyrimidin-2-yl)amino)pyridin-3-yl)piperazin-1-yl)acetamido)spiro[3.3]heptan-2-yl)amino)-N-(1-cyclopropyl-5-methyl-1H-pyrazol-3-yl)-6-(methylamino)nicotinamide]
4 | > 100 | CC(=O)c1c(C)c2cnc(Nc3ccc(N4CCN(CC(=O)NC5CC6(C5)CC(Oc5nc(NC(C)C)ccc5C(=O)Nc5cn(C)c(C7CC7)n5)C6)CC4)cn3)nc2n(C2CCCC2)c1=O (stereo not drawn) [CPD-317, 2-((6-(2-(4-(6-((6-acetyl-8-cyclopentyl-5-methyl-7-oxo-7,8-dihydropyrido[2,3-d]pyrimidin-2-yl)amino)pyridin-3-yl)piperazin-1-yl)acetamido)spiro[3.3]heptan-2-yl)oxy)-N-(2-cyclopropyl-1-methyl-1H-imidazol-4-yl)-6-(isopropylamino)nicotinamide]
5 | > 100 | CC(=O)c1c(C)c2cnc(Nc3ccc(N4CCN(CC(=O)NC5CC6(C5)CC(Nc5nc(CC(C)C)ccc5C(=O)Nc5cn(C)c(C7CC7)n5)C6)CC4)cn3)nc2n(C2CCCC2)c1=O (stereo not drawn) [CPD-318, 2-((6-(2-(4-(6-((6-acetyl-8-cyclopentyl-5-methyl-7-oxo-7,8-dihydropyrido[2,3-d]pyrimidin-2-yl)amino)pyridin-3-yl)piperazin-1-yl)acetamido)spiro[3.3]heptan-2-yl)amino)-N-(2-cyclopropyl-1-methyl-1H-imidazol-4-yl)-6-isobutylnicotinamide]
6 | > 100 | CNc1ccc(C(=O)Nc2ccc(N(C)C)nn2)c(NC2CC(N3CCC(CN4CCN(c5ccc(Nc6ncc7c(C)c(C(C)=O)c(=O)n(C8CCCC8)c7n6)nc5)CC4)C3)C2)n1 (stereo not drawn) [CPD-319, 2-((3-(3-((4-(6-((6-acetyl-8-cyclopentyl-5-methyl-7-oxo-7,8-dihydropyrido[2,3-d]pyrimidin-2-yl)amino)pyridin-3-yl)piperazin-1-yl)methyl)pyrrolidin-1-yl)cyclobutyl)amino)-N-(6-(dimethylamino)pyridazin-3-yl)-6-(methylamino)nicotinamide]

The next lines start with the compound.

Row | Structure (SMILES) | IC50 [nM]
7 | CNc1ccc(C(=O)Nc2cn(C)c(C3CCCC3)n2)c(NC2CC3(CC(NC(=O)CN4CCN(c5ccc(Nc6ncc7c(C)c(C(C)=O)c(=O)n(C8CCCC8)c7n6)nc5)CC4)C3)C2)n1 (stereo not drawn) [CPD-296, 2-((6-(2-(4-(6-((6-acetyl-8-cyclopentyl-5-methyl-7-oxo-7,8-dihydropyrido[2,3-d]pyrimidin-2-yl)amino)pyridin-3-yl)piperazin-1-yl)acetamido)spiro[3.3]heptan-2-yl)amino)-N-(2-cyclopentyl-1-methyl-1H-imidazol-4-yl)-6-(methylamino)nicotinamide] | > 100
8 | CNc1ccc(C(=O)Nc2cc(C)n(C3CCC3)n2)c(NC2CC3(CC(NC(=O)CN4CCN(c5ccc(Nc6ncc7c(C)c(C(C)=O)c(=O)n(C8CCCC8)c7n6)nc5)CC4)C3)C2)n1 (stereo not drawn) [CPD-297, 2-((6-(2-(4-(6-((6-acetyl-8-cyclopentyl-5-methyl-7-oxo-7,8-dihydropyrido[2,3-d]pyrimidin-2-yl)amino)pyridin-3-yl)piperazin-1-yl)acetamido)spiro[3.3]heptan-2-yl)amino)-N-(1-cyclobutyl-5-methyl-1H-pyrazol-3-yl)-6-(methylamino)nicotinamide] | > 100
9 | CCCNc1ccc(C(=O)Nc2cn(C)c(C3CC3)n2)c(NC2CC3(CC(NC(=O)CN4CCN(c5ccc(Nc6ncc7c(C)c(C(C)=O)c(=O)n(C8CCCC8)c7n6)nc5)CC4)C3)C2)n1 (stereo not drawn) [CPD-298, 2-((6-(2-(4-(6-((6-acetyl-8-cyclopentyl-5-methyl-7-oxo-7,8-dihydropyrido[2,3-d]pyrimidin-2-yl)amino)pyridin-3-yl)piperazin-1-yl)acetamido)spiro[3.3]heptan-2-yl)amino)-N-(2-cyclopropyl-1-methyl-1H-imidazol-4-yl)-6-(propylamino)nicotinamide] | > 100
10 | CNc1ccc(C(=O)Nc2ccc(N(C)C)nn2)c(NC2CCN(C(=O)CNC3CCN(c4ccc(Nc5ncc6c(C)c(C(C)=O)c(=O)n(C7CCCC7)c6n5)nc4)CC3)CC2)n1 [CPD-299, 2-((1-((1-(6-((6-acetyl-8-cyclopentyl-5-methyl-7-oxo-7,8-dihydropyrido[2,3-d]pyrimidin-2-yl)amino)pyridin-3-yl)piperidin-4-yl)glycyl)piperidin-4-yl)amino)-N-(6-(dimethylamino)pyridazin-3-yl)-6-(methylamino)nicotinamide] | < 50
11 | CC(=O)c1c(C)c2cnc(Nc3ccc(N4CCN(CCC(=O)N5CC(Nc6nc(NC(C)C)ccc6C(=O)Nc6ccc(N(C)C)nn6)C5)CC4)cn3)nc2n(C2CCCC2)c1=O [CPD-303, 2-((1-(3-(4-(6-((6-acetyl-8-cyclopentyl-5-methyl-7-oxo-7,8-dihydropyrido[2,3-d]pyrimidin-2-yl)amino)pyridin-3-yl)piperazin-1-yl)propanoyl)azetidin-3-yl)amino)-N-(6-(dimethylamino)pyridazin-3-yl)-6-(isopropylamino)nicotinamide] | < 50
12 | CC(=O)c1c(C)c2cnc(Nc3ccc(N4CCN(CCC(=O)N5CC(Nc6nc(NC(C)C)ccc6C(=O)Nc6cn(C)c(C7CC7)n6)C5)CC4)cn3)nc2n(C2CCCC2)c1=O [CPD-304, 2-((1-(3-(4-(6-((6-acetyl-8-cyclopentyl-5-methyl-7-oxo-7,8-dihydropyrido[2,3-d]pyrimidin-2-yl)amino)pyridin-3-yl)piperazin-1-yl)propanoyl)azetidin-3-yl)amino)-N-(2-cyclopropyl-1-methyl-1H-imidazol-4-yl)-6-(isopropylamino)nicotinamide] | > 100
13 | [2H]C([2H])([2H])Nc1ccc(C(=O)Nc2cn(C)c(C3CC3)n2)c(NC2CC(NC(=O)CN3CCN(c4ccc(Nc5ncc6c(C)c(C(C)=O)c(=O)n(C7CCCC7)c6n5)nc4)CC3)C2)n1 (stereo not drawn) [CPD-307, 2-((3-(2-(4-(6-((6-acetyl-8-cyclopentyl-5-methyl-7-oxo-7,8-dihydropyrido[2,3-d]pyrimidin-2-yl)amino)pyridin-3-yl)piperazin-1-yl)acetamido)cyclobutyl)amino)-N-(2-cyclopropyl-1-methyl-1H-imidazol-4-yl)-6-((methyl-d3)amino)nicotinamide] | > 100
14 | CCc1nc(NC(=O)c2ccc(NC)nc2NC2CC3(CC(NC(=O)CN4CCN(c5ccc(Nc6ncc7c(C)c(C(C)=O)c(=O)n(C8CCCC8)c7n6)nc5)CC4)C3)C2)cn1C (stereo not drawn) [CPD-308, 2-((6-(2-(4-(6-((6-acetyl-8-cyclopentyl-5-methyl-7-oxo-7,8-dihydropyrido[2,3-d]pyrimidin-2-yl)amino)pyridin-3-yl)piperazin-1-yl)acetamido)spiro[3.3]heptan-2-yl)amino)-N-(2-ethyl-1-methyl-1H-imidazol-4-yl)-6-(methylamino)nicotinamide] | > 100
15 | CCCc1nc(NC(=O)c2ccc(NC)nc2NC2CC3(CC(NC(=O)CN4CCN(c5ccc(Nc6ncc7c(C)c(C(C)=O)c(=O)n(C8CCCC8)c7n6)nc5)CC4)C3)C2)cn1C (stereo not drawn) [CPD-309, 2-((6-(2-(4-(6-((6-acetyl-8-cyclopentyl-5-methyl-7-oxo-7,8-dihydropyrido[2,3-d]pyrimidin-2-yl)amino)pyridin-3-yl)piperazin-1-yl)acetamido)spiro[3.3]heptan-2-yl)amino)-N-(1-methyl-2-propyl-1H-imidazol-4-yl)-6-(methylamino)nicotinamide] | > 100
16 | CNc1ccc(C(=O)Nc2cn(C)c(C3CCC3)n2)c(NC2CC3(CC(NC(=O)CN4CCN(c5ccc(Nc6ncc7c(C)c(C(C)=O)c(=O)n(C8CCCC8)c7n6)nc5)CC4)C3)C2)n1 (stereo not drawn) [CPD-310, 2-((6-(2-(4-(6-((6-acetyl-8-cyclopentyl-5-methyl-7-oxo-7,8-dihydropyrido[2,3-d]pyrimidin-2-yl)amino)pyridin-3-yl)piperazin-1-yl)acetamido)spiro[3.3]heptan-2-yl)amino)-N-(2-cyclobutyl-1-methyl-1H-imidazol-4-yl)-6-(methylamino)nicotinamide] | > 100
17 | CNc1ccc(C(=O)Nc2ccc(N(C)C)nn2)c(NC2CC(OC(=O)N3CCN(c4ccc(Nc5ncc6c(C)c(C(C)=O)c(=O)n(C7CCCC7)c6n5)nc4)CC3)C2)n1 (stereo not drawn) [CPD-311, 3-((3-((6-(dimethylamino)pyridazin-3-yl)carbamoyl)-6-(methylamino)pyridin-2-yl)amino)cyclobutyl 4-(6-((6-acetyl-8-cyclopentyl-5-methyl-7-oxo-7,8-dihydropyrido[2,3-d]pyrimidin-2-yl)amino)pyridin-3-yl)piperazine-1-carboxylate] | > 100
18 | CCn1nc(NC(=O)c2ccc(NC)nc2NC2CC3(CC(NC(=O)CN4CCN(c5ccc(Nc6ncc7c(C)c(C(C)=O)c(=O)n(C8CCCC8)c7n6)nc5)CC4)C3)C2)cc1C (stereo not drawn) [CPD-312, 2-((6-(2-(4-(6-((6-acetyl-8-cyclopentyl-5-methyl-7-oxo-7,8-dihydropyrido[2,3-d]pyrimidin-2-yl)amino)pyridin-3-yl)piperazin-1-yl)acetamido)spiro[3.3]heptan-2-yl)amino)-N-(1-ethyl-5-methyl-1H-pyrazol-3-yl)-6-(methylamino)nicotinamide] | > 100
